# Tested on: male C57BL/6 mice
# Experiment: 55° C. warm-water tail-flick test (antinociception)
# Type: in vivo
# Conditions: Mus musculus, sc, 0.5 h, compounds of Table I; s.c.; 30 min; 55° C. water; configuration tested as in Table II; read-out: ED50 (mg/kg) at 30 min on C57BL/6 mice in Warm-water Tail-flick Test
# Protocol: Antinociception was assessed using the 55° C. warm-water tail-flick test. The latency to the first sign of a rapid tail flick was taken as the behavioral endpoint. Each mouse was first tested for baseline latency by immersing its tail in the water and recording the time to response. Mice not responding within 2 secs were excluded from further testing. Responsive mice were then s.c. administered the test compound and tested for antinociception at 30 min, 60 min, 90 min, and 120 min time points afterward. Antinociception was calculated using the following formula: percentage of antinociception=100×(test latency−control latency)/(20−control latency).
# The following new compounds were also made and tested to determine the half maximal possible effective dose, or ED50 (mg/kg), in mice, using one of: the warm water tail-flick test as in Table II, spared nerve injury, chronic constriction injury, or Complete Freund's adjuvant induced inflammatory pain. The symbols in the last column are: + indicates ED 50>50 mg/kg; ++ indicates ED 50 is less than or equal to 30 mg/kg.
row,SMILES,ED50 [mg/kg]
1,"CCOC(C)C1(CCc2cccs2)CCN(C(C)(C)c2ccc(C)nc2)C1 (single isomer, unassigned) [Compound 5]",≤ 30
2,"Cc1ccc(C(C)(C)N2CCC(CCCc3cccs3)(C3CCCO3)C2)cn1 (single isomer, unassigned) [Compound 19]",≤ 30
3,"Cc1ccc(C(C)(C)N2CCC(CCc3cccs3)(c3nnc(C)s3)C2)cn1 (single isomer, unassigned) [Compound 24]",≤ 30
4,"Cc1ccc(C(C)(C)N2CCC(CCc3ccc(F)s3)(CNC(=O)NC(C)C)C2)cn1 (single isomer, unassigned) [Compound 42]",≤ 30
5,"Cc1ccc(C(C)(C)N2CCC(CCc3ccc(F)s3)(CNC(=O)Nc3ccccc3)C2)cn1 (single isomer, unassigned) [Compound 43]",≤ 30
6,"OCC1(CCc2ccc(F)cc2)CCN(Cc2cccnc2)C1 (single isomer, unassigned) [Compound 44]",≤ 30
7,"CCOCC1(CCc2ccc(F)cc2)CCN(Cc2cncc(F)c2)C1 (single isomer, unassigned) [Compound 45]",> 50

# Same assay, conditions: Mus musculus, sc, 0.5 h, compounds of Table III; s.c.; 30 min; 55° C. water; configuration tested as in Table IV; read-out: ED50 (mg/kg) at 30 min on C57BL/6 mice in Warm-water Tail-flick Test (same as Table II)
row,SMILES,ED50 [mg/kg]
1,"CC(C)(c1ccsc1)N1CCC(CCc2cccs2)(C2CCCO2)C1 (single isomer, unassigned) [Compound 24]",≤ 30

# Same assay, conditions: Mus musculus; half maximal effective dose in mice; using one of: warm water tail-flick test, spared nerve injury, chronic constriction injury, or Complete Freund's adjuvant induced inflammatory pain (not stated which per compound); read-out: Biological Activity (ED50)
row,SMILES,ED50 [mg/kg]
1,"N#Cc1ccc(CC[C@@]2(C3CCO3)CCN(Cc3cccnc3)C2)cc1 (single isomer, unassigned) [Compound 11, 4-(2-((R)-3-((R or S)-oxetan-2-yl)-1-(pyridin-3-ylmethyl)pyrrolidin-3-yl)ethyl) benzonitrile]",≤ 30
2,"Fc1ccc(CC[C@@]2(C3CCO3)CCN(Cc3cccnc3)C2)cc1 (single isomer, unassigned) [Compound 12, 3-(((R)-3-(4-fluorophenethyl)-3-((R or S)-oxetan-2-yl)pyrrolidin-1-yl)methyl)pyridine]",≤ 30
3,"N#Cc1ccc(CC[C@]2(C3CCO3)CCN(Cc3cccnc3)C2)cc1 (single isomer, unassigned) [Compound 21, 4-(2-((S)-3-((R or S)-oxetan-2-yl)-1-(pyridin-3-ylmethyl)pyrrolidin-3-yl)ethyl) benzonitrile]",> 50
4,"CC(C)c1nc(C(C)(C)N2CC[C@@](CCc3ccc(S(C)(=O)=O)cc3)(C3CCCO3)C2)cs1 (single isomer, unassigned) [Compound 29, 2-isopropyl-4-(2-((R)-3-(4-(methylsulfonyl)phenethyl)-3-((R or S)-tetrahydrofuran-2-yl)pyrrolidin-1-yl)propan-2-yl)thiazole]",≤ 30
5,"CC(C)c1nc(C(C)(C)N2CC[C@@](CCc3ccc(C#N)cc3)(C3CCCO3)C2)cs1 (single isomer, unassigned) [Compound 30, 4-(2-((R)-1-(2-(2-isopropylthiazol-4-yl)propan-2-yl)-3-((R or S)-tetrahydrofuran-2-yl)pyrrolidin-3-yl)ethyl) benzonitrile]",> 50
6,"CCOC(c1ccccc1)[C@]1(CCc2ccc(C#N)cc2)CCN(C(C)(C)c2ccccc2)C1 (single isomer, unassigned) [Compound 31, 4-(2-((R)-3-((R or S)-ethoxy(phenyl)methyl)-1-(2-phenylpropan-2-yl)pyrrolidin-3-yl)ethyl)benzonitrile]",> 50
7,"CC(O)[C@]1(CCc2ccc(F)cc2)CCN(C(C)(C)c2ccc(S(C)(=O)=O)cc2)C1 (single isomer, unassigned) [Compound 38, (R or S)-1-((R)-3-(4-fluorophenethyl)-1-(2-(4-(methylsulfonyl)phenyl)propan-2-yl)pyrrolidin-3-yl)ethan-1-ol]",> 50
8,"CC(C)(c1ccccn1)N1CC[C@](COCc2ccccc2)(C2CCCO2)C1 (single isomer, unassigned) [Compound 42]",> 50
9,"CC(C)(c1ccc(S(C)(=O)=O)cc1)N1CC[C@@](CCc2ccc(F)cc2)(C(O)C(F)(F)F)C1 (single isomer, unassigned) [Compound 50]",> 50
10,"CCOC(C(F)(F)F)[C@]1(CCc2ccc(C#N)cc2)CCN(C(C)(C)c2ccccn2)C1 (single isomer, unassigned) [Compound 52]",> 50

# From patent US20240383882A1 (Ecstasy LLC, priority 2020, published 2024)
